According to patent publication US10758534B2 (Vertex Pharmaceuticals Incorporated, priority 2014, dated 2020):

These compounds were tested against T1, F508del (Homo sapiens, UniProt P13569, DEL508-508) (assay: Protocol 2: FRET membrane potential optical assay (VIPR), identification of correction compounds). Settings: Table 3; compounds of Table 1 as modulators of CFTR activity; protocol not stated.
T1 construct: expressed in transfected cells
Type: cell-based
How it was run: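 Single-addition HTS format: F508del-expressing NIH3T3 cells pre-incubated 16 hrs at 37° C. ± compound, with 27° C. culture as positive control. Channel activation by forskolin 10 μM and genistein 20 μM upon switch to gluconate bath, pH 7.4; read-out is FRET-based depolarization signal.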

T1 sequence (P13569 with tags, fused parts or gaps DEL508-508): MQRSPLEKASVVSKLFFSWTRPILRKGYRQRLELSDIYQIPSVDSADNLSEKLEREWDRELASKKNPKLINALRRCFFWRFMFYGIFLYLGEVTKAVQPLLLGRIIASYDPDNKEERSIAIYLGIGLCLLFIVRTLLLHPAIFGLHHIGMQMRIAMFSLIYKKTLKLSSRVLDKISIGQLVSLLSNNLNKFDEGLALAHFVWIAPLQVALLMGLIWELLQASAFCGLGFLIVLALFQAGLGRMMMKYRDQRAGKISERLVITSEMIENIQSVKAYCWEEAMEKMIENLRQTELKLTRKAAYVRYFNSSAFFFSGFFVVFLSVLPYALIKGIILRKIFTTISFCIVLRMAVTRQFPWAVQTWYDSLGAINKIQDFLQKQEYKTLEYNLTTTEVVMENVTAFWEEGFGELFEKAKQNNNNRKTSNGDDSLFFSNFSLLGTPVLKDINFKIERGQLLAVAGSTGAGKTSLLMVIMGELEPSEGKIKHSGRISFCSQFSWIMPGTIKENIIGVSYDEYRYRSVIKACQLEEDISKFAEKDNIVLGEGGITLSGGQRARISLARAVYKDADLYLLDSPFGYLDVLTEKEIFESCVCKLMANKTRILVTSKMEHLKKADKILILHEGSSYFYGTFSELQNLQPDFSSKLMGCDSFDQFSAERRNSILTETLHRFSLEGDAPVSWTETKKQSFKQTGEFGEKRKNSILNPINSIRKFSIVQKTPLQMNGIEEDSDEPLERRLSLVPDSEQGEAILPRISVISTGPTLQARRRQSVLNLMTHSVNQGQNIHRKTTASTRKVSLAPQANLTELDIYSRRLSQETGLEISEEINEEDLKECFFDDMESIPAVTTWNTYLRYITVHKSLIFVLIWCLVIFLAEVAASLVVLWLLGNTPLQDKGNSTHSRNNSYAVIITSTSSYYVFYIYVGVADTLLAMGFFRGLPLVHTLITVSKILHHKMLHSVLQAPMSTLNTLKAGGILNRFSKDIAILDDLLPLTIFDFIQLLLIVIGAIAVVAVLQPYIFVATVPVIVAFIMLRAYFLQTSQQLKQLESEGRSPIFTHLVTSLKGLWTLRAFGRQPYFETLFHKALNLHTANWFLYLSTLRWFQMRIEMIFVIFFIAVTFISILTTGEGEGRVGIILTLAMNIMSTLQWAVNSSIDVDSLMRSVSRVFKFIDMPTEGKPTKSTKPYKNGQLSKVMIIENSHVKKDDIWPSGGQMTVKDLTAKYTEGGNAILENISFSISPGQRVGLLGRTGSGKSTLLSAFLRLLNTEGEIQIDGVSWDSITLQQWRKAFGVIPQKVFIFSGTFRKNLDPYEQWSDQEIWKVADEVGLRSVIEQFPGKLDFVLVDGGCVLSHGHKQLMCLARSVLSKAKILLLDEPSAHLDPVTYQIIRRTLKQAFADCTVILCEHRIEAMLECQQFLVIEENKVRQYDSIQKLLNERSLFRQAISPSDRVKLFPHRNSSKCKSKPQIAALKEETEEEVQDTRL

Row | SMILES | EC30
1 | CN(c1ccccc1)c1nc(C(C)(C)C)ccc1C(=O)NS(=O)(=O)c1cccc(N)c1 [Compound 85, N-(3-aminophenyl)sulfonyl-6-tert-butyl-2-(N-methylanilino)pyridine-3-carboxamide] | ++ (“++” means between 3 uM and 10 uM)
2 | Cc1cccc(C)c1Cn1nc(C(C)(C)C)cc1C(=O)NS(=O)(=O)c1cccc2[nH]ncc12 [Compound 86, 5-tert-butyl-2-[(2,6-dimethylphenyl)methyl]-N-(1H-indazol-4-ylsulfonyl)pyrazole-3-carboxamide] | ++ (“++” means between 3 uM and 10 uM)
3 | COc1ncccc1S(=O)(=O)NC(=O)c1ccc(C(C)(C)C)nc1Oc1ccc(C)cc1C [Compound 89, 6-tert-butyl-2-(2,4-dimethylphenoxy)-N-[(2-methoxy-3-pyridyl)sulfonyl]pyridine-3-carboxamide] | +++ (“+++” means <3 uM)
4 | COc1cccnc1S(=O)(=O)NC(=O)c1ccc(C(C)(C)C)nc1Oc1c(C)cc(C)cc1C [Compound 92, 6-tert-butyl-N-[(3-methoxy-2-pyridyl)sulfonyl]-2-(2,4,6-trimethylphenoxy)pyridine-3-carboxamide] | +++ (“+++” means <3 uM)
5 | Cc1cc(C)c(Oc2nc(-c3ccc(F)cc3)ccc2C(=O)NS(=O)(=O)c2cccc(N)n2)c(C)c1 [Compound 93, N-[(6-amino-2-pyridyl)sulfonyl]-6-(4-fluorophenyl)-2-(2,4,6-trimethylphenoxy)pyridine-3-carboxamide] | +++ (“+++” means <3 uM)
6 | Cc1cc(C)c(Oc2nc(C(F)(F)F)ccc2C(=O)NS(=O)(=O)c2cccc(N)c2)c(C)c1 [Compound 96, N-(3-aminophenyl)sulfonyl-6-(trifluoromethyl)-2-(2,4,6-trimethylphenoxy)pyridine-3-carboxamide] | +++ (“+++” means <3 uM)
7 | Cc1cc(C)c(Oc2nc(-c3c(C)cccc3C)ccc2C(=O)NS(=O)(=O)c2cccc(N)n2)c(C)c1 [Compound 97, N-[(6-amino-2-pyridyl)sulfonyl]-6-(2,6-dimethylphenyl)-2-(2,4,6-trimethylphenoxy)pyridine-3-carboxamide] | +++ (“+++” means <3 uM)
8 | Cc1c(Cn2nc(C(C)(C)C)cc2C(=O)NS(=O)(=O)c2ccccc2)cccc1C(F)(F)F [Compound 98, N-(benzenesulfonyl)-5-tert-butyl-2-[[2-methyl-3-(trifluoromethyl)phenyl]methyl]pyrazole-3-carboxamide] | +++ (“+++” means <3 uM)
9 | COc1cccc(Oc2nc(C(C)(C)C)ccc2C(=O)NS(=O)(=O)c2ccccc2)c1 [Compound 101, N-(benzenesulfonyl)-6-tert-butyl-2-(3-methoxyphenoxy)pyridine-3-carboxamide] | +++ (“+++” means <3 uM)
10 | Cc1cc(C)c(Oc2cc(C(C)(C)C)ccc2C(=O)NS(=O)(=O)c2cccc(N)n2)c(C)c1 [Compound 102, N-[(6-amino-2-pyridyl)sulfonyl]-4-tert-butyl-2-(2,4,6-trimethylphenoxy)benzamide] | +++ (“+++” means <3 uM)
11 | Cc1cc(C)c(Oc2ccc(C(C)(C)C)nc2C(=O)NS(=O)(=O)c2cccc(N)c2)c(C)c1 [Compound 106, N-(3-aminophenyl)sulfonyl-6-tert-butyl-3-(2,4,6-trimethylphenoxy)pyridine-2-carboxamide] | +++ (“+++” means <3 uM)
12 | Cc1cc(C)c(Oc2nc(C(C)(C)C)ccc2C(=O)NS(=O)(=O)c2c[nH]ccc2=O)c(C)c1 [Compound 107, 6-tert-butyl-N-[(4-oxo-1H-pyridin-3-yl)sulfonyl]-2-(2,4,6-trimethylphenoxy)pyridine-3-carboxamide] | +++ (“+++” means <3 uM)
13 | CC(C)(C)c1cc(C(=O)NS(=O)(=O)c2ccccc2)n(Cc2cccc(-n3cccc3)c2)n1 [Compound 108, N-(benzenesulfonyl)-5-tert-butyl-2-[(3-pyrrol-1-ylphenyl)methyl]pyrazole-3-carboxamide] | +++ (“+++” means <3 uM)
14 | Cc1cc(C#N)cc(C)c1Oc1nc(C(C)(C)C)ccc1C(=O)NS(=O)(=O)c1cccc(N)c1 [Compound 111, N-(3-aminophenyl)sulfonyl-6-tert-butyl-2-(4-cyano-2,6-dimethyl-phenoxy)pyridine-3-carboxamide] | +++ (“+++” means <3 uM)
15 | Cc1cc(C)c(Oc2nc(C(C)(C)C)ccc2C(=O)NS(=O)(=O)c2cc[nH]c(=O)c2)c(C)c1 [Compound 113, 6-tert-butyl-N-[(2-oxo-1H-pyridin-4-yl)sulfonyl]-2-(2,4,6-trimethylphenoxy)pyridine-3-carboxamide] | ++ (“++” means between 3 uM and 10 uM)
16 | CC(C)Oc1ccc(-c2ccc(C(=O)NS(=O)(=O)c3cccc(N)n3)c(N3CCCC(C(C)C)C3)n2)cn1 (stereo not drawn) [Compound 114, N-[(6-amino-2-pyridyl)sulfonyl]-6-(6-isopropoxy-3-pyridyl)-2-(3-isopropyl-1-piperidyl)pyridine-3-carboxamide] | +++ (“+++” means <3 uM)
17 | COc1ccccc1S(=O)(=O)NC(=O)c1ccc(C(C)(C)C)nc1Oc1c(C)cc(C)cc1C [Compound 115, 6-tert-butyl-N-(2-methoxyphenyl)sulfonyl-2-(2,4,6-trimethylphenoxy)pyridine-3-carboxamide] | +++ (“+++” means <3 uM)
18 | COc1ccc2cc(C(=O)NS(=O)(=O)c3cccc(N)c3)n(Cc3c(C)cccc3C)c2c1 [Compound 116, N-(3-aminophenyl)sulfonyl-1-[(2,6-dimethylphenyl)methyl]-6-methoxy-indole-2-carboxamide] | ++ (“++” means between 3 uM and 10 uM)

The remaining lines, values ahead:

Row | EC30 | SMILES
19 | +++ (“+++” means <3 uM) | Cc1cc(C)c(Cn2c(C(=O)NS(=O)(=O)c3ccccc3)cc3c(F)cccc32)c(C)c1 [Compound 87, N-(benzenesulfonyl)-4-fluoro-1-[(2,4,6-trimethylphenyl)methyl]indole-2-carboxamide]
20 | +++ (“+++” means <3 uM) | Cc1cccc(C)c1Cn1nc(C(C)(C)C)cc1C(=O)NS(=O)(=O)c1ccccc1N [Compound 88, N-(2-aminophenyl)sulfonyl-5-tert-butyl-2-[(2,6-dimethylphenyl)methyl]pyrazole-3-carboxamide]
21 | +++ (“+++” means <3 uM) | Cc1cc(C)c(CN2Cc3ccccc3C2C(=O)NS(=O)(=O)c2cccc(N)c2)c(C)c1 (stereo not drawn) [Compound 90, N-(3-aminophenyl)sulfonyl-2-[(2,4,6-trimethylphenyl)methyl]isoindoline-1-carboxamide]
22 | ++ (“++” means between 3 uM and 10 uM) | Cc1cc(C)c(Oc2nc3ccccc3cc2C(=O)NS(=O)(=O)c2cccc(N)n2)c(C)c1 [Compound 91, N-[(6-amino-2-pyridyl)sulfonyl]-2-(2,4,6-trimethylphenoxy)quinoline-3-carboxamide]
23 | +++ (“+++” means <3 uM) | Cc1cc(C)c(CN2Cc3ccccc3C2C(=O)NS(=O)(=O)c2ccncc2)c(C)c1 (stereo not drawn) [Compound 94, N-(4-pyridylsulfonyl)-2-[(2,4,6-trimethylphenyl)methyl]isoindoline-1-carboxamide]
24 | +++ (“+++” means <3 uM) | Cc1cc(C)c(CN2Cc3cccc(C)c3CC2C(=O)NS(=O)(=O)c2cccc(N)n2)c(C)c1 (stereo not drawn) [Compound 95, N-[(6-amino-2-pyridyl)sulfonyl]-5-methyl-2-[(2,4,6-trimethylphenyl)methyl]-3,4-dihydro-H-isoquinoline-3-carboxamide]
25 | +++ (“+++” means <3 uM) | Cc1cccc(C)c1Cn1nc(-c2ccccc2C#N)cc1C(=O)NS(=O)(=O)c1ccccc1 [Compound 99, N-(benzenesulfonyl)-5-(2-cyanophenyl)-2-[(2,6-dimethylphenyl)methyl]pyrazole-3-carboxamide]
26 | +++ (“+++” means <3 uM) | COc1ccc(OC)c(-c2cc(C(=O)NS(=O)(=O)c3ccccc3)n(Cc3c(C)cccc3C)n2)c1 [Compound 100, N-(benzenesulfonyl)-5-(2,5-dimethoxyphenyl)-2-[(2,6-dimethylphenyl)methyl]pyrazole-3-carboxamide]
27 | +++ (“+++” means <3 uM) | Cc1cc(C)c(CN2Cc3c(C(C)C)cccc3C2C(=O)NS(=O)(=O)c2ccc[nH]c2=O)c(C)c1 (stereo not drawn) [Compound 103, 4-isopropyl-N-[(2-oxo-1H-pyridin-3-yl)sulfonyl]-2-[(2,4,6-trimethylphenyl)methyl]isoindoline-1-carboxamide]
28 | +++ (“+++” means <3 uM) | Cc1cc(C)c(Cn2nc(C(C)(C)C)cc2C(=O)NS(=O)(=O)c2cccc(N(C)C)c2C)c(C)c1 [Compound 104, 5-tert-butyl-N-[3-(dimethylamino)-2-methyl-phenyl]sulfonyl-2-[(2,4,6-trimethylphenyl)methyl]pyrazole-3-carboxamide]
29 | +++ (“+++” means <3 uM) | Cc1cccc(C)c1Cn1nc(C2CCCC2)cc1C(=O)NS(=O)(=O)c1cccc(N)c1 [Compound 105, N-(3-aminophenyl)sulfonyl-5-cyclopentyl-2-[(2,6-dimethylphenyl)methyl]pyrazole-3-carboxamide]
30 | +++ (“+++” means <3 uM) | Cc1cccc(C)c1Cn1nc(-c2ccccc2F)cc1C(=O)NS(=O)(=O)c1ccccc1 [Compound 109, N-(benzenesulfonyl)-2-[(2,6-dimethylphenyl)methyl]-5-(2-fluorophenyl)pyrazole-3-carboxamide]
31 | +++ (“+++” means <3 uM) | Cc1cc(C)c(Cn2nc(C(C)(C)C)cc2C(=O)NS(=O)(=O)c2cccc(N)c2)c(C)c1 [Compound 110, N-(3-aminophenyl)sulfonyl-5-tert-butyl-2-[(2,4,6-trimethylphenyl)methyl]pyrazole-3-carboxamide]
32 | +++ (“+++” means <3 uM) | Cc1cc(C)c(Cn2c(C(=O)NS(=O)(=O)c3ccccc3O)cc3ccccc32)c(C)c1 [Compound 112, N-(2-hydroxyphenyl)sulfonyl-1-[(2,4,6-trimethylphenyl)methyl]indole-2-carboxamide]
33 | +++ (“+++” means <3 uM) | Cc1cc(C)c(Oc2nc(C(C)(C)C)ccc2C(=O)NS(=O)(=O)c2ccncc2)c(C)c1 [Compound 117, 6-tert-butyl-N-(4-pyridylsulfonyl)-2-(2,4,6-trimethylphenoxy)pyridine-3-carboxamide]
